Assay [1] deals with T1, ST3Gal 1 (rat recombinant a 2,3-Sialytransferase) (Rattus norvegicus, UniProt Q6H8N0).
T1 sequence (Q6H8N0 1-340): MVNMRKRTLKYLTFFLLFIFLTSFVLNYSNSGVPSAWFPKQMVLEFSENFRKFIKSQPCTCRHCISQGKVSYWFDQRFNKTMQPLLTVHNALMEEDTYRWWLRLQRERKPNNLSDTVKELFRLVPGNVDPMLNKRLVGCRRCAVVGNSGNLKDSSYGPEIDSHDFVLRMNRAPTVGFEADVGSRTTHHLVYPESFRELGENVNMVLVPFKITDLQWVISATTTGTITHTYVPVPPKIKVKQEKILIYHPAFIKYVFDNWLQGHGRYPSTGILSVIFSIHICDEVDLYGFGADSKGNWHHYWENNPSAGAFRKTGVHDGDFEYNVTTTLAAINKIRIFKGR
Briefly: ST3Gal 1 assay with 2AA-labeled GSL standards, HPLC readout. It counts as biochemical. The settings on record: b350 ties FIG. 5/6 (compound 1) to the ST3Gal 1 assay. As to the method: The enzyme ST3Gal 1 (rat recombinant a 2,3-Sialytransferase) assay was carried out with 2AA-labeled GSL standards as substrate. The complete incubation mixture contained the following components in a final volume of 20 ul: 50 mM cacodylate buffer, pH6.2, 10 mM MgCl2, 0.2% TX100, 2 mM CMP-sialic acid (CMP-SA), 100 ng 2AA-GM1/GD1b, 10 μU of ST3Gal1 enzyme. The reaction was carried out @37° C. for 30 min. Control reactions were done without CMP-SA. The reaction was analyzed by HPLC as described above. The % of product conversion was assessed by comparison to control samples. The enzyme titration curve was determined from 10, 3, 1, 0.3 and 0.1 μU of enzyme. The time course was determined using 10 μU of the enzyme, @ 0, 5, 10, 15, 30, 45, 60, 90, and 120 min. […] FIG. 5 illustrates the activity of late stage selective ganglioside inhibitors.

For another assay, the system named is NCI-H82 cells. Briefly: Ganglioside profiling of compound-treated NCI-H82 cells (GSL extraction, 2AA labeling, NP-HPLC). The settings on record: NCI-H82 cells, HPLC peak area as % of untreated. It counts as cell-based. How it is done:
NCI-H82 cells were cultured in 6 well plates and treated with compounds at a concentration of 25, 12 and 6 uM in triplicates. PDMP (1-Phenyl-2-decanoylamino-3-morpholino-1-propanol, HCl, EMD #513100) at 25, 12, 6 uM and DGNJ (N-(n-Butyl) deoxygalactonojirimycin, EMD #203994) at 50 uM were used as controls. After 96 hours of compounds treatment the cells were harvested for ganglioside profiling. The suspension cells were centrifuged and the pellets washed once with PBS. Cells were resuspended in 1 ml of PBS, 1/100 of cells were taken to check the cell viability (Viacount)) and for glycosphingolipid (GSL) quantitation and normalization. 1/10 of cells were taken for CTB-FACS to check GM1 expression. The remaining cells were subjected to the ganglioside extraction procedure follow the protocol described by R. Schnaar (Methods in Enzymology, 230: 348-370, 1994).
Briefly, the cells were pelleted by centrifugation and resuspended in cold distilled-water. The cell suspension was homogenized with Polytron homogenizer. Glycolipids were extracted with chloroform:methanol:water at 4:8:3 ratio. Glycolipids were partitioned by adding 0.173 volume of water to extracted the supernatant. The upper […] phase (glycolipids) was dried in a vacuum centrifuge (SpeedVac).
Glycans were released from the glycolipids using the enzyme EGCase II (Sigma, Cat #E9030) as described by the manufacture. Released glycans were labeled with 2AA (2-Anthranilic acid, Sigma, Cat #A89804) following the procedures described by D. Neville (Analytical Biochemistry, 331 (2004) 275-282). Non-incorporated 2AA was removed by column chromatography (Discovery DPA-6S). Briefly, the extracted GSLs were digested with EGCase in a 10 ul reaction volume overnight. 40 ul of labeling mix (30 mg/ml 2-AA, 45 mg/ml […] in 4% NaAc and 2% boric acid in methano) were added. The reaction was carried at 80° C. for 45 min. 2AA-labeled glycans were purified by column chromatography (Discovery DPA-6S). The column was preequilibrated with 2×1 ml 97% acetonitrile (ACN) and the sample was loaded by adding 1 ml 97% ACN to the reaction mix. The column was washed 4× with 1 ml 97% ACN and the 2AA-labeled […] were eluted with 2×0.6 ml water. After drying down (SpeedVac), the sample were resuspended and analyzed by normal phase high performance liquid chromatography (NP-HPLC).
Purified 2AA-GSL glycans were separated on NP-HPLC using a 4.6×250 mm TSK Gel-Amide-80 column (Tosoh Bioscience). The chromatography system consisted of a Waters Alliance 2690/5 separation module and an in-line Waters 2475 fluorescence detector set at Exλ360 nm and Emλ425 nm. All chromatography was performed at 30° C. Solvent A was 20% 100 mM ammonium acetate pH3.85, 80% Acetonitrile, solvent B was 20% 100 mM ammonium acetate pH3.85, 20% ACN and 60% Milli-Q water. The gradient was run from 86% A to 54.7% A in 55 min at flow rate 0.8˜1.2 ml/min (Analytical Biochemistry, 331 (2004) 275-282). Chromatography data was processed using Waters Empower software. Glucose units were determined based on a 2AA-labeled glucose oligomer ladder (Ludger). All 2AA-GSL standards were prepared in house and labeled as glucose units.
FIGS. 18-25 illustrate the dose dependent effects on individual gangliosides (individual HPLC peaks) of various compounds as determined according to the methods of Example 5, but with additional and slightly altered concentration levels used for test compound dosing.

The subject of assay [2] is primary human fibroblasts from Sandhoff patients. As to the kind of experiment: GM2 storage in gangliosidosis fibroblasts (Sandhoff), GSL analysis by HPLC. It counts as cell-based. The settings on record: 30 uM, 13 days of treatment. As to the method: (§1) Human gangliosidosis fibroblast cells are obtained e.g., from Coriell Institute for Medical Research (http://ccr.coriell.org). The primary cells are cultured in minimum essential medium (MEM) with 15% fetal bovine serum (FBS) as instructed by the supplier.
(§2) The fibroblast cells are cultured in 6 well plates at a density of 5.0E05/well in MEM, 15% FBS. The cells are treated with compounds at 30 uM on the next day of culture. The non-selective glycolipid inhibitors PDMP and DGNJ, which inhibit glucosylceramide synthase, are used as control. All the treatments are performed in triplicate. The medium is changed every 5 days with fresh compounds added. After 13 days of treatment with compounds, the cells are harvested for GSL analysis. The conditioned medium is removed, the monolayer is washed with PBS and detached with 5 mM EDTA in PBS. An aliquot of the cell suspension is taken for cell viability count using Viacount.
The cells are spun down and the cell pellets are resuspended in water for GSL extraction. The cells are homogenized using a homogenizer at 6500 rpm for 30 seconds twice. Gangliosides are extracted from homogenates by using chloroform:methanol:water (4:8:3) followed by partitioning. The ganglioside containing upper phase is taken and dried down in a SpeedVac.
Purified total GSLs are subjected to endo-glucoceramidase (EGCase II, Sigma) treatment to release free glycans. ˜10 ug protein equivalent GSL is digested with 1 mU EGCaseII in 15 ul incubation buffer containing 50 mM sodium acetate, pH 5.5 and 0.4% TX100. Digestion is performed at 37° C. overnight. Released free glycans are tagged with anthranilic Acid (2-AA, Sigma). A labeling mix is prepared freshly in 4% sodium acetate (NaAc.3H2O) and 2% boric acid/methanol(w/v) by adding 45 mg NaBH3CN first and then adding 30 mg 2AA in a 1 ml solution. 40 ul of this labeling mix is added directly into digestion mix. The labeling is carried out at 80° C. for 45˜60 min. Free labeling reagents are removed by passing the reaction mix through a Discovery DPA-6S (Sigma) column. The DPA-6S column (50 mg) is pre-equilibrated twice with 1 ml acetonitrile (ACN). The reaction mixture is cooled down, 1 ml of 97% ACN is added, and the sample is loaded onto the column. The column is washed with four times with 1 ml of 99% ACN and once with 0.5 ml of 97% ACN. 2AA-glycans are eluted in two time 600 ul water. The eluates are dried down in a SpeedVac and subjected to HPLC analysis.
Purified 2-AA-labeled oligosaccharides are analyzed by HPLC an method as described by Neville et al. (Anal. Biochem, 2004, 331:275-282). 2-AA-oligosaccharides are separated by NP-HPLC using a 5 μm 4.6×250 mm TSK gel-Amide 80 column (Tosoh) on a Waters Alliance 2690 separation module equipped with a Waters 2475 fluorescence detector set at Exλ360 nm and Emλ425 nm. Solvent A is 80% ACN and 20% 100 mM ammonium acetate (AmAc), pH 3.85. Solvent B is 60% Milli-Q water, 20% ACN and 20% 100 mM AmAc, pH 3.85. The gradient profile is listed below. Glucose unites are determined based on a 2-AA-labeled glucose ladder (Ludger, UK).

Assay [3] has as its system primary human fibroblasts from Tay-Sachs patients. Briefly: GM2 storage in gangliosidosis fibroblasts (Tay-Sachs), GSL analysis by HPLC. It is filed as cell-based. The settings on record: 30 uM, 13 days of treatment. As to the method:
as §1
as §2, with “Viacount. […]” for “Viacount.”
Purified 2-AA-labeled oligosaccharides are analyzed by HPLC an method as described by Neville et al. (Anal. Biochem, 2004, 331:275-282). 2-AA-oligosaccharides are separated by NP-HPLC using a 5 μm 4.6×250 mm TSK gel-Amide 80 column (Tosoh) on a Waters Alliance 2690 separation module equipped with a Waters 2475 fluorescence detector set at Exλ360 nm and Emλ425 nm. […] Glucose unites are determined based on a 2-AA-labeled glucose ladder (Ludger, UK).

The source of these data is US20100248365A1, “GANGLIOSIDE BIOSYNTHESIS MODULATORS” (ZACHARON PHARMACEUTICALS, INC., priority 2009, published 2010).

Turning to `Cc1nn(-c2ccccc2)c(C)c1C=NN1CCN(Cc2ccccc2Cl)CC1` [compound 1, 4-(2-chlorobenzyl)-N-((3,5-dimethyl-1-phenyl-1H-pyrazol-4-yl)methylene)piperazin-1-amine], the “inhibition of ST3Gal 1 enzyme activity (FIG. 5)” value in assay [1] is listed as “inhibition”.

For `COc1ccc(/C(C)=N/Nc2nc3ccccc3nc2C)cc1OC` [compound 19, (E)-2-(2-(1-(3,4-dimethoxyphenyl)ethylidene)hydrazinyl)-3-methylquinoxaline], the “dose dependent reduction effect on ganglioside GM1” value in the assay with NCI-H82 cells is “dose dependent reduction”. Further, the “reduction of GM2 storage in primary human fibroblasts from Sandhoff patients” value in assay [2] is listed as “reduction”.

Turning to `Cc1cc(OCC(=O)Nc2ccc(N(C)C)cc2)cc(C)c1Cl` [compound 21, 2-(4-chloro-3,5-dimethylphenoxy)-N-(4-(dimethylamino)phenyl)acetamide], the “reduction of GM2 storage in primary human fibroblasts from Tay-Sachs patients” value in assay [3] is recorded as “reduction”.
